Measured values taken from ChEMBL document CHEMBL1629551, “Evaluation of the antimicrobial, antioxidant, and anti-inflammatory activities of hydroxychavicol for its potential use as an oral care agent” (Antimicrob Agents Chemother, 2009).
Values after ≈ are worked out from the molar mass of the structure shown. Active and inactive are the calls of the source. No cut-off for these calls is given here.

Key:
Neutrophil [1] = assay: Antiinflammatory activity against human neutrophils assessed as inhibition of LPS-stimulated TNFalpha production at 10 ug/ml after 3 hrs by FACS analysis
Streptococcus mutans [2] = assay: Antimicrobial activity against Streptococcus mutans ATCC 25175 by turbidimetric analysis; assay type: functional
Enterococcus faecium [3] = assay: Antimicrobial activity against Enterococcus faecium ATCC 8042 by turbidimetric analysis; assay type: functional
Enterococcus faecalis [4] = assay: Antimicrobial activity against Enterococcus faecalis ATCC 29212 by turbidimetric analysis; assay type: functional
Streptococcus sanguinis [5] = assay: Antimicrobial activity against Streptococcus sanguis ATCC 10556 by turbidimetric analysis; assay type: functional
Actinomyces viscosus [6] = assay: Antimicrobial activity against Actinomyces viscosus ATCC 15987 by turbidimetric analysis; assay type: functional
[7] = system: Aggregatibacter actinomycetemcomitans; assay: Antimicrobial activity against Haemophilus actinomycetemcomitans ATCC 29522 by turbidimetric analysis; assay type: functional
Prevotella intermedia [8] = assay: Antimicrobial activity against Prevotella intermedia ATCC 25611 by turbidimetric analysis; assay type: functional
Fusobacterium nucleatum [9] = assay: Antimicrobial activity against Fusobacterium nucleatum ATCC 10953 by turbidimetric analysis; assay type: functional
Porphyromonas gingivalis [10] = assay: Antimicrobial activity against Porphyromonas gingivalis ATCC 33277 by turbidimetric analysis; assay type: functional
Streptococcus mutans [11] = assay: Bactericidal activity against Streptococcus mutans ATCC 25175 after 24 hrs by turbidimetric analysis; assay type: functional; conditions: ATCC 25175, 24 h
Enterococcus faecium [12] = assay: Bactericidal activity against Enterococcus faecium ATCC 8042 after 24 hrs by turbidimetric analysis; assay type: functional; conditions: ATCC 8042, 24 h
Enterococcus faecalis [13] = assay: Bactericidal activity against Enterococcus faecalis ATCC 29212 after 24 hrs by turbidimetric analysis; assay type: functional; conditions: ATCC 29212, 24 h
Streptococcus sanguinis [14] = assay: Bactericidal activity against Streptococcus sanguis ATCC 10556 after 24 hrs by turbidimetric analysis; assay type: functional; conditions: ATCC 10556, 24 h
Actinomyces viscosus [15] = assay: Bactericidal activity against Actinomyces viscosus ATCC 15987 after 24 hrs by turbidimetric analysis; assay type: functional; conditions: ATCC 15987, 24 h
[16] = system: Aggregatibacter actinomycetemcomitans; assay: Bactericidal activity against Haemophilus actinomycetemcomitans ATCC 29522 after 24 hrs by turbidimetric analysis; assay type: functional; conditions: ATCC 29522, 24 h
Prevotella intermedia [17] = assay: Bactericidal activity against Prevotella intermedia ATCC 25611 after 24 hrs by turbidimetric analysis; assay type: functional; conditions: ATCC 25611, 24 h
Fusobacterium nucleatum [18] = assay: Bactericidal activity against Fusobacterium nucleatum ATCC 10953 after 24 hrs by turbidimetric analysis; assay type: functional; conditions: ATCC 10953, 24 h
Porphyromonas gingivalis [19] = assay: Bactericidal activity against Porphyromonas gingivalis ATCC 33277 after 24 hrs by turbidimetric analysis; assay type: functional; conditions: ATCC 33277, 24 h
Streptococcus mutans [20] = assay: Antimicrobial activity against Streptococcus mutans ATCC 25175 assessed as log reduction in bacterial growth at 250 ug/ml measured at 10 hrs by time kill analysis; assay type: functional
Streptococcus mutans [21] = assay: Antimicrobial activity against Streptococcus mutans ATCC 25175 after 12 hrs by time kill analysis; assay type: functional, organism-based
Streptococcus mutans [22] = assay: Antimicrobial activity against adherent cells of Streptococcus mutans ATCC 25175 at 1000 ug/ml; assay type: functional, organism-based
Streptococcus mutans [23] = assay: Antimicrobial activity against Streptococcus mutans ATCC 25175 at 125 to 500 ug/ml by time kill analysis; assay type: functional, organism-based; conditions: TDE = time-dependent effect
Streptococcus mutans [24] = assay: Antimicrobial activity against Streptococcus mutans ATCC 25175 assessed as post antibiotic effect at 250 ug/ml; assay type: functional
Streptococcus mutans [25] = assay: Antimicrobial activity against Streptococcus mutans ATCC 25175 assessed as post antibiotic effect at 2 times MIC; assay type: functional
Actinomyces viscosus [26] = assay: Antimicrobial activity against Actinomyces viscosus ATCC 15987 assessed as post antibiotic effect at 250 ug/ml; assay type: functional
Actinomyces viscosus [27] = assay: Antimicrobial activity against Actinomyces viscosus ATCC 15987 assessed as post antibiotic effect at 2 times MIC; assay type: functional
Streptococcus mutans [28] = assay: Antimicrobial activity against Streptococcus mutans ATCC 25175 assessed as inhibition of biofilm formation after 24 hrs by crystal violet staining; assay type: functional, organism-based; conditions: ATCC 25175, 24 h
Actinomyces viscosus [29] = assay: Antimicrobial activity against Actinomyces viscosus ATCC 15987 assessed as inhibition of biofilm formation after 24 hrs by crystal violet staining; assay type: functional, organism-based; conditions: ATCC 15987, 24 h
Streptococcus mutans [30] = assay: Antimicrobial activity against Streptococcus mutans ATCC 25175 assessed as eradication of preformed biofilm after 24 hrs by crystal violet staining; assay type: functional, organism-based; conditions: ATCC 25175, 24 h
Actinomyces viscosus [31] = assay: Antimicrobial activity against Actinomyces viscosus ATCC 15987 assessed as eradication of preformed biofilm after 24 hrs by crystal violet staining; assay type: functional, organism-based; conditions: ATCC 15987, 24 h
Streptococcus mutans [32] = assay: Antimicrobial activity against Streptococcus mutans ATCC 25175 assessed as increase in membrane permeability at 1000 ug/ml after 30 mins by propidium iodide staining-based flow cytometry; assay type: functional, organism-based
Actinomyces viscosus [33] = assay: Antimicrobial activity against Actinomyces viscosus ATCC 15987 assessed as increase in membrane permeability at 1000 ug/ml after 30 mins by propidium iodide staining-based flow cytometry; assay type: functional, organism-based
Liver microsomes = assay: Antioxidant activity in rat liver microsomes assessed as reduction in lipid peroxidation at 10 to 100 ug/ml by thiobarbituric acid assay; assay type: functional; conditions: Microsome
Neutrophil [34] = assay: Antiinflammatory activity against human neutrophils assessed as inhibition of LPS-stimulated TNFalpha production at 5 ug/ml after 3 hrs by FACS analysis; assay type: functional, cell-based
Neutrophil [35] = assay: Antiinflammatory activity against human neutrophils assessed as inhibition of LPS-stimulated TNFalpha production at 2.5 ug/ml after 3 hrs by FACS analysis; assay type: functional, cell-based
Neutrophil [36] = assay: Antiinflammatory activity against human neutrophils assessed as inhibition of LPS-stimulated TNFalpha production at 10 ug/ml after 3 hrs by FACS analysis; assay type: functional, cell-based
[37] = Cytotoxicity against human neutrophils at 2.5 to 10 ug/ml after 3 hrs by MTT assay; assay type: cell-based; conditions: neutrophil
Homo sapiens [38] = species on record: Homo sapiens; assay: Toxicity in healthy human assessed as occurrence of after taste; assay type: organism-based; conditions: in vivo
Homo sapiens [39] = species on record: Homo sapiens; assay: Toxicity in healthy human assessed as occurrence of tingling sensation; assay type: organism-based; conditions: in vivo
Streptococcus mutans [40] = conditions: ATCC 25175, 1000 ug/ml
Description: Antimicrobial activity against adherent cells of Streptococcus mutans ATCC 25175 assessed as inhibition of water-insoluble glucan synthesis at 1000 ug/ml in presence of sucrose

COc1ccc(C2CNC(=O)C2)cc1OC1CCCC1 (configuration not stated)
inhibition (Neutrophil [1]): Active

C=CCc1ccc(O)c(O)c1 [HYDROXYCHAVICOL]
MIC (Streptococcus mutans [2]): 250 µg/mL (≈ 1660 µM) | MIC (Enterococcus faecium [3]): 250 µg/mL (≈ 1660 µM) | MIC (Enterococcus faecalis [4]): 250 µg/mL (≈ 1660 µM) | MIC (Streptococcus sanguinis [5]): 125 µg/mL (≈ 832 µM) | MIC (Actinomyces viscosus [6]): 250 µg/mL (≈ 1660 µM) | MIC [7]: 250 µg/mL (≈ 1660 µM) | MIC (Prevotella intermedia [8]): 125 µg/mL (≈ 832 µM) | MIC (Fusobacterium nucleatum [9]): 125 µg/mL (≈ 832 µM) | MIC (Porphyromonas gingivalis [10]): 62.5 µg/mL (≈ 416 µM) | MBC (Streptococcus mutans [11]): 500 µg/mL (≈ 3330 µM) | MBC (Enterococcus faecium [12]): 500 µg/mL (≈ 3330 µM) | MBC (Enterococcus faecalis [13]): 250 µg/mL (≈ 1660 µM) | MBC (Streptococcus sanguinis [14]): 125 µg/mL (≈ 832 µM) | MBC (Actinomyces viscosus [15]): 500 µg/mL (≈ 3330 µM) | MBC [16]: 500 µg/mL (≈ 3330 µM) | MBC (Prevotella intermedia [17]): 125 µg/mL (≈ 832 µM) | MBC (Fusobacterium nucleatum [18]): 125 µg/mL (≈ 832 µM) | MBC (Porphyromonas gingivalis [19]): 62.5 µg/mL (≈ 416 µM) | log reduction (Streptococcus mutans [20]): 3 | Activity (Streptococcus mutans [21]): Dose-dependent effect | Activity (Streptococcus mutans [22]): Active | Activity (Streptococcus mutans [23]): tde | PAE (Streptococcus mutans [24]): 3.5 h | PAE (Streptococcus mutans [25]): 6 h | PAE (Actinomyces viscosus [26]): 4 h | PAE (Actinomyces viscosus [27]): 7 h | IC50 (Streptococcus mutans [28]): 500 µg/mL (≈ 3330 µM) | IC50 (Actinomyces viscosus [29]): 500 µg/mL (≈ 3330 µM) | IC50 (Streptococcus mutans [30]): 500 µg/mL (≈ 3330 µM) | IC50 (Actinomyces viscosus [31]): 1000 µg/mL (≈ 6660 µM) | Activity (Streptococcus mutans [32]): Active | Activity (Actinomyces viscosus [33]): Active | inhibition (Liver microsomes): 15% | inhibition (Neutrophil [34]): Active | inhibition (Neutrophil [35]): Active | inhibition (Neutrophil [36]): Active | Activity [37]: Non-toxic | Activity (Homo sapiens [38]): Non-toxic | Activity (Homo sapiens [39]): Non-toxic | inhibition (Streptococcus mutans [40]): Active

Cc1ccc(C(C)C)c(O)c1 [THYMOL]
Activity [37]: Non-toxic
